Data set [1] is described as follows: In vitro stability (half-life) in human plasma. To be noted: male, human plasma pH 7.4 with anticoagulant, 37° C., read-out: T1/2 (minutes) Human. In kind it is in vitro ADME. As for the experimental part:
(§1) Certain compounds from Tables 1 and 2 and CXL-1020 were tested for their stability in phosphate buffered saline (PBS) and plasma. The assay system comprised (i) PBS, or plasma from rat, dog or human (at least 3 donors, male, pooled) at pH 7.4, and (ii) for tests conducted in plasma, an anticoagulant (sodium heparin or sodium citrate). Each test compound (5 μM) was incubated in PBS or plasma at 37° C. on a THERMOMIXER® with shaking. Three samples (n=3) were taken at each of seven sampling time points: 0, 10, 30, 60, 90, 180 and 360 minutes. The samples were immediately combined with 3 volumes (i.e., 3 times the volume of PBS or plasma) of acetonitrile containing 1% formic acid and an internal standard to terminate the reaction. AB SCIEX API 3000 LC-MS/MS analysis of the test compounds was performed without a standard curve. Half-lives (T1/2) of the test compounds were determined from graphs of the percent remaining values using the peak area response ratio. For compounds tested multiple times, the value provided in the Table represents an average of the replicate assays.

A short description of data set [2]: HNO production determined via N2O quantification (GC headspace analysis). In kind it is physicochemical. The following applies: PBS, 37° C. From the text: Nitrous oxide (N2O) is produced via the dimerization and dehydration of HNO, and is the most common marker for nitroxyl production (Fukuto et al., Chem. Res. Toxicol. 18:790-801 (2005)). […] Using either nitrous oxide gas or Angeli's salt (AS) as a standard, the relative amounts of N2O released from compounds of the disclosure was examined via gas chromatography (GC) headspace analysis.
A procedure for determining the relative amounts of N2O released from compounds of the disclosure is as follows. GC was performed on an Agilent gas chromatograph equipped with a split injector (10:1 splitting), microelectron capture detector, and a HP-MOLSIV 30 m×0.32 mm×25 μm molecular sieve capillary column. Helium was used as the carrier (4 mL/min) gas and nitrogen was used as the make-up (20 mL/min) gas. The injector oven and the detector oven were kept at 200° C. and 325° C., respectively. All nitrous oxide analyses were performed with the column oven held at a constant temperature of 200° C.
All gas injections were made using an automated headspace analyzer. Vial pressurization was 15 psi. The analyzer's sample oven, sampling valve, and transfer line were kept at 40° C., 45° C., and 50° C., respectively. The oven stabilization, vial pressurization, loop fill, loop equilibration, and sample injection times were 1.00 min., 0.20 min., 0.20 min., 0.05 min., and 1.00 min., respectively.
All determinations used a batch of nominal 20 mL headspace vials with volumes pre-measured for sample uniformity (actual vial volume varied by <2.0% relative standard deviation (n=6)). The average vial volume for the batch was determined from six randomly-selected vials by calculating the weight difference between the capped and sealed empty (i.e., air-filled) vial and the capped and sealed deionized water-filled vial using the known density of deionized water, then averaging. Blanks were prepared by sealing and capping two vials then purging each for 20 seconds with a gentle argon stream. Nitroxyl standards were prepared by sealing and capping four vials then purging each for 1 minute with a gentle stream, from a gas cylinder, of a 3000 ppm […].
CXL-1020 (N-hydroxy-2-methanesulfonylbenzene-1-sulfonamide) “standards” were prepared by, in duplicate, accurately weighing 10±0.5 mg of CXL-1020 and adding it to each 4 mL vial. Using an auto pipette, 1 mL of argon-purged anhydrous DMF (Sigma-Aldrich) was added to each 4 mL vial to form a CXL-1020 stock solution for each sample and the vials were capped and shaken and/or sonicated to insure complete dissolution upon visual observation. Using an auto pipette, 20 mL vials were charged with 5 mL of PBS (purged for at least 30 min. with argon prior to use), purged with argon for at least 20 sec., and sealed with a rubber septum. Using a 50 μL syringe, 50 μL of the CXL-1020 stock solution was injected into each 20 mL vial containing the PBS.
Samples were prepared as follows. In duplicate, 18±1 mg of each sample was accurately weighed into each 4 mL vial. Using an auto pipette, 1 mL of argon-purged anhydrous DMF was added to each 4 mL vial to form a sample stock solution for each sample and the vials were capped and shaken and/or sonicated to insure complete sample dissolution upon visual observation. Using an auto pipette, 20 mL vials were charged with 5 mL of PBS (purged for at least 30 min. with argon prior to use), purged with argon for at least 20 sec., and sealed with a rubber septum. The vials were equilibrated for at least 10 min. at 37° C. in a dry block heater. Thereafter, using a 50 μL syringe, 50 μL of a sample stock solution was injected into each 20 mL vial containing the PBS. The vials were then held at 37° C. in the dry block heater for a time period such that the sum of the time spent in the dry block heater plus the time spent in the automated headspace analyzer oven before sample injection equaled the desired incubation time. […]

Data set [3] is described as follows: In vitro stability (half-life) in rat plasma. In kind it is in vitro ADME. The following applies: rat plasma pH 7.4 with anticoagulant, 37° C.; for half-life at 5 μM: male, rat, plasma, pH 7.4, 5 μM, read-out: T1/2 (minutes) Rat; for T1/2 (minutes) Rat: 5 μM. As for the experimental part: as §1
Data set [4] can be described thus: In vitro stability (half-life) in phosphate buffered saline (PBS) pH 7.4. In kind it is physicochemical. The following applies: pH 7.4, 5 μM, PBS pH 7.4, 37° C., read-out: T1/2 (minutes) PBS. As for the experimental part: as §1
Data set [5] in a line: In vitro stability (half-life) in dog plasma. In kind it is in vitro ADME. To be noted: dog plasma pH 7.4 with anticoagulant, 37° C.; for half-life at 5 μM: male, dog, plasma, pH 7.4, 5 μM, read-out: T1/2 (minutes) Dog. The protocol: as §1

With `Cc1oncc1S(=O)(=O)NO` [Compound 3, N-Hydroxy-5-methyl-1,2-oxazole-4-sulfonamide], the half-life at 5 μM in data set [1] turned out to be 71 min; in data set [3], 37 min; in data set [4], 98 min; in data set [5], 38 min. The “Relative N2O Yield (90 minutes incubation)” value in data set [2] came out at 45%. Also, the “Relative N2O Yield (360 minutes incubation)” value in data set [2] came to 56%.

In the case of `CC(C)NC(=O)c1cc(S(=O)(=O)NO)cs1` [Compound 5, 4-(Hydroxysulfamoyl)-N-(propan-2-yl)thiophene-2-carboxamide], the half-life at 5 μM in data set [1] came out at 24 min; in data set [3], 104 min; in data set [4], 136 min; in data set [5], 28 min. Moreover, the “Relative N2O Yield (90 minutes incubation)” value in data set [2] came out at 48%. Besides, the “Relative N2O Yield (360 minutes incubation)” value in data set [2] was determined as 72%.

With `Cc1cc(S(=O)(=O)NO)c(C(F)(F)F)o1` [Compound 7, N-Hydroxy-5-methyl-2-(trifluoromethyl)furan-3-sulfonamide], the “Relative N2O Yield (90 minutes incubation)” value in data set [2] is 51%. For the same compound, the half-life at 5 μM was 224 min in data set [4] and 56 min in data set [5].

Consider `CS(=O)(=O)c1cc(S(=O)(=O)NO)cs1` [Compound 8, N-Hydroxy-5-methanesulfonylthiophene-3-sulfonamide], for which the “Relative N2O Yield (90 minutes incubation)” value in data set [2] is recorded as 77%. The half-life at 5 μM in data set [4] was found to be 42 min; in data set [5] it was 27 min.

On to `O=S(=O)(NO)c1cccnc1` [Compound 26, N-Hydroxypyridine-3-sulfonamide], for which the half-life at 5 μM was 45 min in data set [1], 29 min in data set [3] and 53 min in data set [4]. The “Relative N2O Yield (90 minutes incubation)” value in data set [2] came to 73.5%.

On to `Cc1noc(C)c1S(=O)(=O)NO` [Compound 27, N-Hydroxy-3,5-dimethyl-1,2-oxazole-4-sulfonamide], for which, in data set [1], the half-life at 5 μM is 99 min. For the same compound, in data set [2], the “Relative N2O Yield (90 minutes incubation)” value is given as 35.5% and the “Relative N2O Yield (360 minutes incubation)” value is given as 66%. Also, in data set [3], the “T1/2 (minutes) Rat” value came out at 75 min.

In the case of `Cc1cc(F)ccc1S(=O)(=O)NO` [Compound 39, 4-Fluoro-N-hydroxy-2-methylbenzene-1-sulfonamide], in data set [2], the “Relative N2O Yield (90 minutes incubation)” value came to 60% and the “Relative N2O Yield (360 minutes incubation)” value is 75%. Moreover, the half-life at 5 μM in data set [3] is 29 min. In addition, the half-life at 5 μM in data set [4] is 30 min.

Regarding `O=[N+]([O-])c1cc(S(=O)(=O)NO)sc1Cl` [Compound 47, 5-Chloro-N-hydroxy-4-nitrothiophene-2-sulfonamide], in data set [2], the “Relative N2O Yield (90 minutes incubation)” value is recorded as 58% and the “Relative N2O Yield (360 minutes incubation)” value was found to be 70%. The half-life at 5 μM in data set [3] is less than 5 min. The half-life at 5 μM in data set [4] was 11 min.

Regarding `Cc1ccc(C)c(S(=O)(=O)NO)c1` [Compound 49, N-Hydroxy-2,5-dimethylbenzene-1-sulfonamide], the “Relative N2O Yield (90 minutes incubation)” value in data set [2] amounted to 42%. For the same compound, the “Relative N2O Yield (360 minutes incubation)” value in data set [2] was determined as 68%. In addition, the half-life at 5 μM in data set [3] amounted to 13 min; in data set [4] it was 87 min.

Regarding `O=S(=O)(NO)c1cc(S(=O)(=O)c2ccccc2)cs1` [Compound 51, 4-(Benzenesulfonyl)-N-hydroxythiophene-2-sulfonamide], the “Relative N2O Yield (90 minutes incubation)” value in data set [2] is listed as 96%. In addition, the half-life at 5 μM was 7 min in data set [3] and 15 min in data set [4].

Take `Cc1ccc(F)c(S(=O)(=O)NO)c1` [Compound 56, 2-Fluoro-N-hydroxy-5-methylbenzene-1-sulfonamide]: in data set [2], the “Relative N2O Yield (90 minutes incubation)” value was determined as 72% and the “Relative N2O Yield (360 minutes incubation)” value came to 78%. Further, the half-life at 5 μM in data set [3] was 8 min. Moreover, the half-life at 5 μM in data set [4] is 34 min.

Take `O=S(=O)(NO)c1ccc(F)c(Cl)c1` [Compound 87, 3-Chloro-4-fluoro-N-hydroxybenzene-1-sulfonamide]: in data set [2], the “Relative N2O Yield (90 minutes incubation)” value is listed as 53%. The “Relative N2O Yield (360 minutes incubation)” value in data set [2] is 79%. Also, the half-life at 5 μM in data set [3] came out at 49 min; in data set [4] it was 101 min; in data set [5] it was 24 min.

With `O=S(=O)(NO)c1cccc(S(=O)(=O)NO)c1` [Compound 88, 1-N,3-N-Dihydroxybenzene-1,3-disulfonamide], in data set [2], the “Relative N2O Yield (90 minutes incubation)” value came to 53%. The “Relative N2O Yield (360 minutes incubation)” value in data set [2] is listed as 100%. For the same compound, the half-life at 5 μM in data set [4] was 38 min; in data set [5], 16 min.

As for `O=S(=O)(NO)c1cccc(Br)c1` [Compound 89, 3-Bromo-N-hydroxybenzene-1-sulfonamide], the half-life at 5 μM was 38.4 min in data set [3], 76 min in data set [4] and 34 min in data set [5].

In the case of `Cc1ccc(F)cc1S(=O)(=O)NO` [Compound 90, 5-Fluoro-N-hydroxy-2-methylbenzene-1-sulfonamide], the “Relative N2O Yield (90 minutes incubation)” value in data set [2] amounted to 90%. The half-life at 5 μM in data set [3] was 6.8 min; in data set [4], 25.1 min; in data set [5] it was 21 min.

For the compound `Cc1noc(C)c1S(=O)(=O)NO` [Compound 91, N-Hydroxy-3,5-dimethyl-1,2-oxazole-4-sulfonamide], the “T1/2 (minutes) Rat” value in data set [3] turned out to be 176 min. In addition, the half-life at 5 μM in data set [4] worked out at 211 min; in data set [5], 54.4 min.

On to `O=S(=O)(NO)c1cccc(OC(F)(F)F)c1` [Compound 92, N-Hydroxy-3-(trifluoromethoxy)benzene-1-sulfonamide], for which the half-life at 5 μM is 40 min in data set [1], 35 min in data set [3], 58 min in data set [4] and 19 min in data set [5]. In data set [2], the “Relative N2O Yield (90 minutes incubation)” value was determined as 59%. Moreover, in data set [3], the “T1/2 (minutes) Rat” value was found to be 35.1 min. The “T1/2 (minutes) Dog” value in data set [5] (5 μM) was determined as 18.5 min.

For `CS(=O)(=O)c1ccc(S(=O)(=O)NO)cc1` [Compound 93, N-Hydroxy-4-methanesulfonylbenzene-1-sulfonamide], the half-life at 5 μM in data set [1] was determined as 35 min; in data set [3], 38 min; in data set [4], 68 min. Moreover, in data set [2], the “Relative N2O Yield (90 minutes incubation)” value is given as 86%.

Source of the values: US10245249B2, “Pharmaceutical compositions comprising nitroxyl donors” (Cardioxyl Pharmaceuticals, Inc., priority 2013, dated 2019).
